Test results reported in US9783537B2, “3-(4-ethylnylphenyl) pyridopyrimidinone compounds and process for preparation thereof useful as potential anticancer agents” (Council of Scientific & Industrial Research, priority 2013, dated 2017).
Like-named read-outs stand apart in the source and are kept apart here.

How the values were obtained:
DU-145 = experiment: SRB 48 h growth assay, Prostate DU-145; assay type: cell-based, human; details: Homo sapiens, DU-145, Prostate, read-out: Log10 LC50 (converted)
TK-10 = experiment: SRB 48 h growth assay, Renal TK-10; assay type: cell-based, human; details: Homo sapiens, TK-10, Renal, read-out: Log10 LC50 (converted)
SK-OV-3 = experiment: SRB 48 h growth assay, Ovarian SK-OV-3; assay type: cell-based, human; details: Homo sapiens, SK-OV-3, Ovarian
SNB-75 = experiment: SRB 48 h growth assay, CNS SNB-75; assay type: cell-based, human; details: Homo sapiens, SNB-75, CNS
NCI-H226 = experiment: SRB 48 h growth assay, Non-small Cell Lung NCI-H226; assay type: cell-based, human; details: Homo sapiens
LOX IMVI = experiment: SRB 48 h growth assay, Melanoma LOX IMVI; assay type: cell-based, human; details: Homo sapiens
PC-3 = experiment: SRB 48 h growth assay, Prostate PC-3; assay type: cell-based, human; details: Homo sapiens, PC-3, Prostate
RPMI-8226 = experiment: SRB 48 h growth assay, Leukemia RPMI-8226; assay type: cell-based, human; details: Homo sapiens, RPMI-8226, Leukemia
ACHN = experiment: SRB 48 h growth assay, Renal ACHN; assay type: cell-based, human; details: Homo sapiens
MDA-MB-468 = experiment: SRB 48 h growth assay, Breast MDA-MB-468; assay type: cell-based, human; details: Homo sapiens, MDA-MB-468, Breast
SW-620 = experiment: SRB 48 h growth assay, Colon SW-620; assay type: cell-based, human; details: Homo sapiens, SW-620, Colon
[1] = test system: seven colon cancer cell line (COLO 205, HCC-2998, HCT-116, HCT-15, HT29, KM12 and SW-620); experiment: in vitro anticancer activity, colon panel; assay type: cell-based; details: Homo sapiens; seven colon cancer cell lines, exposure at least 48 h; read-out: GI50, range over panel
SK-MEL-5 = experiment: SRB 48 h growth assay, Melanoma SK-MEL-5; assay type: cell-based, human; details: Homo sapiens, SK-MEL-5, Melanoma
HL-60(TB) = experiment: SRB 48 h growth assay, Leukemia HL-60(TB); assay type: cell-based, human
BT-549 = experiment: SRB 48 h growth assay, Breast BT-549; assay type: cell-based, human; details: Homo sapiens, BT-549, Breast
K-562 = experiment: SRB 48 h growth assay, Leukemia K-562; assay type: cell-based, human
[2] = test system: six CNS cancer cell line (SF-268, SF-295, SF-539, SNB-19, SNB-75 and U251); experiment: in vitro anticancer activity, CNS panel; assay type: cell-based; details: Homo sapiens; six CNS cancer cell lines, exposure at least 48 h; read-out: GI50, range over panel
NCI-H522 = experiment: SRB 48 h growth assay, Non-small Cell Lung NCI-H522; assay type: cell-based, human; details: Homo sapiens
M14 = experiment: SRB 48 h growth assay, Melanoma M14; assay type: cell-based, human; details: Homo sapiens
[3] = test system: six leukemia cancer cell lines (CCRF-CEM, HL-60, K-562, MOLT-4, SR and RPMI-8226); experiment: in vitro anticancer activity, leukemia panel; assay type: cell-based; details: Homo sapiens, exposure at least 48 h, read-out: GI50, range over panel
MCF7 = experiment: SRB 48 h growth assay, Breast MCF7; assay type: cell-based, human; details: Homo sapiens
UACC-62 = experiment: SRB 48 h growth assay, Melanoma UACC-62; assay type: cell-based, human; details: Homo sapiens, UACC-62, Melanoma
MDA-MB-231/ATCC = experiment: SRB 48 h growth assay, Breast MDA-MB-231/ATCC; assay type: cell-based, human; details: Homo sapiens, read-out: Log10 LC50 (converted)
MDA-MB-435 = experiment: SRB 48 h growth assay, Melanoma MDA-MB-435; assay type: cell-based, human; details: Homo sapiens, MDA-MB-435, Melanoma
[4] = in vitro anticancer activity, melanoma panel; assay type: cell-based; details: Homo sapiens; nine melanoma cell lines, exposure at least 48 h; read-out: GI50, range over panel
A549/ATCC = experiment: SRB 48 h growth assay, Non-small Cell Lung A549/ATCC; assay type: cell-based, human; details: Homo sapiens, read-out: Log10 LC50 (converted)
[5] = read-out: Growth Inhibition GI50
[6] = read-out: Log10 GI50 (converted)
[7] = read-out: Log10 LC50 (converted)

Question: For `C#Cc1ccc(-n2c(/C=C/c3ccc(Cl)c(F)c3)nc3ncccc3c2=O)cc1` [4g, (E)-2-(4-chloro-3-fluorostyryl)-3-(4-ethynylphenyl)pyrido[2,3-d]pyrimidin-4(3H)-one], which CC50 (DU-145) is on record?
Answer: > 100 µM

Question: What about the CC50 (TK-10) of the same molecule?
Answer: > 100 µM

Question: And the GI50 (SK-OV-3; [5])?
Answer: 0.34 µM

Question: And the GI50 (SK-OV-3; [6])?
Answer: 0.347 µM

Question: And the CC50 (SK-OV-3; [7])?
Answer: > 100 µM

Question: What about the GI50 (SNB-75; [5]) of the same molecule?
Answer: 0.34 µM

Question: And the GI50 (SNB-75; [6])?
Answer: 0.339 µM

Question: And the GI50 (NCI-H226; [5])?
Answer: 0.35 µM

Question: And the GI50 (NCI-H226; [6])?
Answer: 0.355 µM

Question: And the GI50 (LOX IMVI; [5])?
Answer: 0.26 µM

Question: And the GI50 (LOX IMVI; [6])?
Answer: 0.263 µM

Question: What about the GI50 (PC-3; [5]) of the same molecule?
Answer: 0.34 µM

Question: What about the GI50 (PC-3; [6]) of the same molecule?
Answer: 0.347 µM

Question: What about the CC50 (PC-3; [7]) of the same molecule?
Answer: > 100 µM

Question: And the GI50 (RPMI-8226; [5])?
Answer: 0.25 µM

Question: What about the GI50 (RPMI-8226; [6]) of the same molecule?
Answer: 0.257 µM

Question: And the CC50 (RPMI-8226; [7])?
Answer: > 100 µM

Question: What about the GI50 (ACHN; [5]) of the same molecule?
Answer: 0.39 µM

Question: And the GI50 (ACHN; [6])?
Answer: 0.398 µM

Question: What about the GI50 (MDA-MB-468; [5]) of the same molecule?
Answer: 0.24 µM

Question: And the GI50 (MDA-MB-468; [6])?
Answer: 0.245 µM

Question: What about the GI50 (SW-620; [5]) of the same molecule?
Answer: 0.37 µM

Question: What about the GI50 (SW-620; [6]) of the same molecule?
Answer: 0.38 µM

Question: What about the CC50 (SW-620; [7]) of the same molecule?
Answer: > 100 µM

Question: What about the GI50 [1] of the same molecule?
Answer: 0.33 to 0.37 µM

Question: And the GI50 (SK-MEL-5; [5])?
Answer: 0.22 µM

Question: What about the GI50 (SK-MEL-5; [6]) of the same molecule?
Answer: 0.229 µM

Question: And the “Log10 TGI50” value (HL-60(TB))?
Answer: >−4.00

Question: And the GI50 (BT-549; [5])?
Answer: 0.32 µM

Question: And the GI50 (BT-549; [6])?
Answer: 0.324 µM

Question: And the GI50 (K-562; Homo sapiens, K562, K-562, Leukemia, read-out: Growth Inhibition GI50)?
Answer: 0.33 µM

Question: And the GI50 (K-562; Homo sapiens, K562, K-562, Leukemia, read-out: Log10 GI50 (converted))?
Answer: 0.339 µM

Question: What about the CC50 (K-562; Homo sapiens, K562, K-562, Leukemia, read-out: Log10 LC50 (converted)) of the same molecule?
Answer: > 100 µM

Question: What about the “Log10 TGI50” value (K-562; K-562, Leukemia) of the same molecule?
Answer: >−4.00

Question: What about the GI50 [2] of the same molecule?
Answer: 0.34 µM

Question: And the GI50 (NCI-H522; [5])?
Answer: 0.27 µM

Question: And the GI50 (NCI-H522; [6])?
Answer: 0.275 µM

Question: What about the GI50 (M14; [5]) of the same molecule?
Answer: 0.3 µM

Question: What about the GI50 (M14; [6]) of the same molecule?
Answer: 0.302 µM

Question: And the GI50 [3]?
Answer: 0.25 to 0.54 µM

Question: And the GI50 (MCF7; [5])?
Answer: 0.32 µM

Question: What about the GI50 (MCF7; [6]) of the same molecule?
Answer: 0.324 µM

Question: And the CC50 (MCF7; [7])?
Answer: > 100 µM

Question: And the GI50 (UACC-62; [5])?
Answer: 0.48 µM

Question: And the GI50 (UACC-62; [6])?
Answer: 0.49 µM

Question: What about the CC50 (MDA-MB-231/ATCC) of the same molecule?
Answer: > 100 µM

Question: And the GI50 (MDA-MB-435; [5])?
Answer: 0.19 µM

Question: What about the GI50 (MDA-MB-435; [6]) of the same molecule?
Answer: 0.195 µM

Question: What about the CC50 (MDA-MB-435; [7]) of the same molecule?
Answer: > 100 µM

Question: And the GI50 [4]?
Answer: 0.19 to 0.54 µM

Question: What about the CC50 (A549/ATCC) of the same molecule?
Answer: > 100 µM
